Literature values in US8509867B2, “Non-invasive measurement of analytes” (Cercacor Laboratories, Inc., priority 2002, dated 2013).

What was measured:
[1] = i.v., rats (Merck)

SMILES: COC(=O)c1ccccc1-c1c2ccc(=N)cc-2oc2cc(N)ccc12 [Rh123, (2-(6-Amino-3-imino-3H-xanthen-9-yl)benzoic acid methyl ester)]
- fifty percent lethality (LD50) [1]: 89.5 mg/kg
- intravenous lethal dose for animals (LD10): approximately 20 mg/kg of body weight
